Results as given in patent publication US9833430B2, “Neurodegenerative disorders and methods of treatment and diagnosis thereof” (The University of Queensland, priority 2013, dated 2017).
“Also recorded” adds a separate entry of the source.

What was measured:
Format in all cases: in vivo
hSOD1^G93A mice [1] = test: Rotarod test, onset of balance loss
Excerpt: (§1) Immediately after weaning, mice were placed on either a standard diet (SF11-027, Specialty Feeds, WA, AUS) or a matched diet (SF11-028, Specialty Feeds) in which 35% of the calories were from triheptanoin oil (Sasol, Germany). All diets were matched in protein, mineral, antioxidant and vitamin content relative to their caloric densities (Thomas et al., 2012). Triheptanoin replaced sucrose, some of the complex carbohydrates and long chain fats in the diet.
(§2) Animals underwent behavioral testing approximately 3-4 hours into the light cycle. All behavioral testing was conducted in an environment with minimal stimuli so as to minimize any possible effects caused by changes in external stimuli. Animals were weighed before every test session. Mice were observed, and disease progression tracked and graded according to a neurological score sheet to ensure that any non-ALS related deaths were excluded from the study. The neurological score was adapted from criteria developed at the ALS therapy development institute (Gill et al., 2009). In accordance with ethical requirements, hSOD1^G93A mice that became too weak to reach the food hoppers were provided with wet chow on the floor of the cages. […]
The rotarod tests were conducted with 10 repeats once a week using a rotarod designed for mice (Ugo Basile, Italy). […] The time at which the animal fell off was recorded. […]

wild-type mice = test: Hind limb grip strength test in wild-type mice on triheptanoin diet; details: triheptanoin n=15 vs control n=12
Method: All experiments were approved by the University of Queensland's Animal Ethics Committee and followed the guidelines of the Queensland Animal Care and Protection Act 2001. All efforts were made to minimize the suffering and the number of animals used. Wild-type and hSOD1^G93A mice (B6.Cg-Tg(SOD1*G93A)1 Gur/J, stock no. 004435, Jackson laboratory, Maine, USA), were generated by mating hSOD1^G93A males with C57B/L6 wild-type females (University of Queensland). Mice were housed in a 12 hour light, 12 hour dark cycle, and had free access to food and water. Experimenters were blinded to animal genotype (until the mice started expressing the ALS phenotype) and dietary interventions. […]
(§3) Hind limb grip strength tests were conducted twice a week using a T-bar force transducer (Ugo Basile, Italy). […] The reading on the force transducer was taken only if both hind limbs released the bar at the same time. The average of 10 trials per mouse was recorded each training session. To compare time points of grip strength loss, the time point where a loss of more than 30% of the combined mean grip strength of week 9 to 13 was recorded, if the subsequent 3 measurements were ≦70% of the original average strength.

hSOD1^G93A mice [2] = test: Motor neuron counting (stereological, L2 to L5); details: hSOD1^G93A mice at 70 days
Method: Mice were fed with control or triheptanoin diet from 35 days until 70 days of age, when mice were anesthetized with pentobarbital (100 mg/kg i.p.), perfused with 0.9% saline followed by 4% paraformaldehyde. Spinal cords were removed and further fixed in 4% paraformaldehyde and subsequently embedded in OCT compound and serial sections of 16 μm were cut from lumbar vertebrae. Sections were washed in cold PBS and stained with 0.1% thionin in acetate buffer (pH3.4). The motor neurons were counted using stereological method as previously described (Banks et al., 2001; 2003; Forgarty et al., 2013). Briefly, motor neurons in the lateral motor column (LMC) from one side of the spinal cord were counted and only neurons that are large in size with darkly stained cytoplasm, pale nucleus and darkly stained nucleoli were counted (Clarke and Oppenheim, 1995). Every 10th section from lumbar 2 to lumbar 5 regions was counted to get the total motor neuron count which was then divided by the number of sections counted and multiplied by the total number of sections containing the LMC.

hSOD1^G93A mice [3] = test: Survival, days taken to reach end-stage
Excerpt: as §1
as §2, with “cages. The endpoint of the study was defined as the mouse being unable to right itself within 15 seconds after being placed on its back.” for “cages.”

hSOD1^G93A mice [4] = test: Body weight and onset of body weight loss in hSOD1^G93A mice
Excerpt: as §1
as §2, with “cages. The endpoint of the study was defined as the mouse being unable to right itself within 15 seconds after being placed on its back.” for “cages.”

hSOD1^G93A mice [5] = test: Hind limb grip strength test in hSOD1^G93A mice on triheptanoin diet
Method: All experiments were approved by the University of Queensland's Animal Ethics Committee and followed the guidelines of the Queensland Animal Care and Protection Act 2001. All efforts were made to minimize the suffering and the number of animals used. Wild-type and hSOD1^G93A mice (B6.Cg-Tg(SOD1*G93A)1 Gur/J, stock no. 004435, Jackson laboratory, Maine, USA), were generated by mating hSOD1^G93A males with C57B/L6 wild-type females (University of Queensland). Mice were housed in a 12 hour light, 12 hour dark cycle, and had free access to food and water. Experimenters were blinded to animal genotype (until the mice started expressing the ALS phenotype) and dietary interventions.
as §1
as §2, with “cages. The endpoint of the study was defined as the mouse being unable to right itself within 15 seconds after being placed on its back. Upon reaching end-stage or 25 weeks of age, transgenic mice and their respective wild-type littermates were euthanized with an overdose of pentobarbital (120 mg/kg, i.p., Provet, Australia). Tissues, including the m. gastrocnemius and tail, were collected for subsequent analysis.” for “cages.”
as §3

[6] = system: Pdha1, Ogdh, Sdha and Mut mRNA in gastrocnemius muscle of hSOD1^G93A mice; test: Quantitative real time PCR of metabolic genes in gastrocnemius muscle; details: 10 week old hSOD1^G93A mice, triheptanoin feeding
Excerpt: After euthanasia, the gastrocnemius muscle was quickly removed and frozen in liquid nitrogen. To extract RNA, muscle samples were pulverized in liquid nitrogen with a cold mortar and pestle, dissolved with TRI reagent (Life Technologies, CA, USA) and extracted according to the manufacturer's instructions. Contaminating DNA was removed by DNase I treatment and cDNA was synthesized using the Tetro cDNA synthesis kit (Bioline, London, UK) according to the manufacturer's instructions.
Expression of several metabolic genes was assayed (Gapdh, Pdha1, Ogdh, Sdha, Pcx, Gpt1, Gpt2, Pcca, Pccb and Mut) by quantitative real time PCR. All primers pairs (Table 1) were evaluated for efficiency using a 4 fold serial dilution series of muscle cDNA. The derived slope of each primer pair was used to calculate the efficiency by applying the formula, […]. Reactions consisted with diluted cDNA, 5 μl of SYBR Green Mastermix and 8 μM of forward and reverse primers each, and were amplified after an initial hot start. Conditions for cycling and the melt curve were identical to those described for quantitative genotyping. Samples without reverse transcriptase treatment were assayed to ensure that samples were free from DNA contamination. The fold expression (ΔCT) of the gene of interest (goi) relative to the geometric mean of housekeeping genes (Tbp, B2m and Hmbs) were calculated with a formula adapted from (Vandesompele et al., 2002) taking into consideration the individual efficiencies (E) of each primer pair.

## CCCCCCC(=O)OCC(COC(=O)CCCCCC)OC(=O)CCCCCC [triheptanoin, 1,3-di(heptanoyloxy)propan-2-yl heptanoate]
hSOD1^G93A mice [1]; hSOD1^G93A mice, triheptanoin vs control diet, p=0.0016
  time of onset of loss of balance delayed by: 1.6 weeks
hSOD1^G93A mice [1]; triheptanoin fed vs control fed SOD1^G93A mice, p=0.0016 (FIG. 3F legend)
  onset of balance loss on the rota-rod delayed by: 13 days
wild-type mice
  difference in mean hind limb grip strength vs control diet: no observable difference
hSOD1^G93A mice [2]; triheptanoin diet from 35 days (n=4), control diet 37% loss
  loss of motor neurons between L2 and L5 vs wild type: 21%
hSOD1^G93A mice [2]; triheptanoin fed, n=4
  motor neuron numbers compared with wild type mice: not significantly different from wild type mice
hSOD1^G93A mice [3]; small study
  effect on survival: did not alter survival
hSOD1^G93A mice [3]; triheptanoin n=7, mean±SEM, p=0.653 vs control
  number of days taken to reach end-stage: 174.9 ± 3.5 days
hSOD1^G93A mice [4]; hSOD1^G93A mice, triheptanoin feeding vs control, p=0.007
  onset of body weight loss delayed by: 1.6 weeks
hSOD1^G93A mice [4]; triheptanoin fed (n=8) vs control fed (n=5) SOD1^G93A mice, p=0.0076 (FIG. 3H legend)
  onset of body weight loss delayed by: 11 days
hSOD1^G93A mice [5]; hSOD1^G93A mice on both diets
  hind limb grip strength (upper limit over time): ≤ 400 mN
hSOD1^G93A mice [5]; high copy number (19-24) hSOD1^G93A mice, diet with 35% of calories from triheptanoin vs control diet (n=8 vs n=5)
  onset of hind limb grip strength loss delayed by: 2.8 weeks
hSOD1^G93A mice [5]; high copy number hSOD1^G93A mice, Bonferroni post-hoc p<0.05
  hind limb grip strength at 18 and 19.5 weeks of age vs control diet: higher hind limb grip strength; also recorded: significantly higher grip strength
hSOD1^G93A mice [5]; high copy number hSOD1^G93A mice, triheptanoin diet vs control diet, p=0.024
  area under the curve for grip strength over time, increase relative to control diet: 38%
[6]
  protection from reduced expression of 2-oxo-glutarate dehydrogenase (Ogdh) mRNA: not
  protection from reduced expression of methylmalonyl mutase (Mut) mRNA: not
  protection from reduced expression of pyruvate dehydrogenase (Pdha1) mRNA: protected
  protection from reduced expression of succinate dehydrogenase (Sdha) mRNA: protected
